Measurements from PubChem BioAssay (NCI).
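Compound exposure: 48 hours, 5 concentrations, 96-well plates. TGI: total growth inhibition.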

Columns and labels:
Test in all cases: growth of human tumour cells (NCI), 48 h
[1] = tested on: ACHN renal
[2] = tested on: HCC-2998 colon
[3] = tested on: HCT-15 colon
[4] = tested on: HOP-92 NSCLC
[5] = tested on: RXF 393 renal
[6] = tested on: SF-268 CNS
[7] = tested on: U251 CNS
[8] = tested on: UO-31 renal
[9] = tested on: BT-549 breast
[10] = tested on: OVCAR-4 ovarian

Compound	TGI [1]	TGI [2]	TGI [3]	TGI [4]	TGI [5]	TGI [6]	TGI [7]	TGI [8]	TGI [9]	TGI [10]
COC1(OC)N=C(N)C2(C#N)C(C)CC(=O)N(N(C)C)C12C#N (stereo not given)	> 100 µM	> 100 µM	> 100 µM	> 100 µM	> 100 µM	> 100 µM	> 100 µM	> 100 µM		
CC(C)CCCC(C)[C@H]1CC[C@H]2[C@@H]3CC[C@H]4C[C@@H](CCC=C(c5cc(Cl)c(O)c(C(=O)OC(C)(C)C)c5)c5cc(Cl)c(O)c(C(=O)OC(C)(C)C)c5)CC[C@]4(C)[C@H]3CC[C@]12C (stereo not given in full)		> 50 µM	> 50 µM		> 50 µM	> 50 µM	> 50 µM		> 50 µM	> 50 µM
CCSc1nc2sc(C)c(C)c2c(=O)n1-c1ccc(C(=O)O)cc1	> 100 µM	> 100 µM	> 100 µM	> 100 µM	> 100 µM	> 100 µM	> 100 µM	> 100 µM		> 100 µM
C[C@@]12CC[C@H]3[C@@H]4CCC(=O)N[C@@]4(C)CC[C@@H]3[C@@]1(C)CC[C@H](OC(=O)Cc1ccc(N(CCCl)CCCl)cc1)C2		31.2 µM	36.1 µM	35.3 µM	32 µM	31.9 µM	28.8 µM	33.3 µM		32.2 µM
CCOC(=O)CCC(C(=O)OCC)n1nc2ccc(Nc3c(C)[n+]([O-])c4cc(Cl)ccc4[n+]3[O-])cc2n1 (stereo not given)	> 100 µM		> 100 µM	> 100 µM	> 100 µM	> 100 µM	> 100 µM	> 100 µM	> 100 µM	> 100 µM
c1ccc2c(c1)CCc1c-2n(CCN2CCCCC2)c2ccccc12	39.3 µM	26.4 µM	22.9 µM	35 µM		49.5 µM	30.3 µM	23.7 µM	42.1 µM	59.4 µM
COC(=O)NCCc1[nH]nc2c1C(=O)C=C(OC)C2=O	37 µM	> 100 µM	71.6 µM	37.7 µM	31.4 µM	36 µM	32 µM	50.1 µM		35.5 µM
Oc1[nH]c2ccccc2c1N=NC1=NCCCCN1	> 100 µM	> 100 µM	> 100 µM	> 100 µM		> 100 µM	> 100 µM	> 100 µM	> 100 µM	> 100 µM
O=C(CSc1nnc(Cc2ccccc2)o1)Nc1ccc(Cl)cc1	> 100 µM	> 100 µM	> 100 µM		> 100 µM		> 100 µM	> 100 µM		> 100 µM
NC(=O)c1n[nH]n(-c2ccccc2)c1=O	> 100 µM	> 100 µM	> 100 µM		> 100 µM	> 100 µM	> 100 µM	> 100 µM	> 100 µM	
Oc1ccc(-c2nc3cc(C(F)(F)F)ccc3n2CC2CCCN3CCCCC23)cc1 (stereo not given)	28.3 µM	21.5 µM	30.1 µM	28.5 µM	34.5 µM	28.1 µM	28 µM	25.1 µM		31.2 µM
CO/N=C1\CCC2(O)C3Cc4ccc(O)c5c4C2(CCN3CC2CC2)[C@H]1O5 (stereo not given in full)	> 100 µM		> 100 µM	> 100 µM		> 100 µM	> 100 µM	> 100 µM	> 100 µM	> 100 µM
N#C/C(=C/c1cccnc1)C(=O)c1ccccc1	> 100 µM	> 100 µM	> 100 µM	> 100 µM	> 100 µM	> 100 µM	> 100 µM	> 100 µM		> 100 µM
OCCCSc1ccccc1SCCCO		> 100 µM	> 100 µM	> 100 µM		> 100 µM	> 100 µM	> 100 µM	> 100 µM	> 100 µM
C=C(C)CCC1CCCCC(CN(C)C)C1=O (stereo not given)	> 100 µM		> 100 µM	> 100 µM		> 100 µM	> 100 µM	> 100 µM		> 100 µM
O=[N+]([O-])c1ccc(NC2OCC(O)C(O)C2O)cc1 (stereo not given)	> 100 µM	> 100 µM	> 100 µM	> 100 µM	> 100 µM	> 100 µM	> 100 µM	> 100 µM		> 100 µM
CC(C)(C)c1cc(-c2ccc(-c3cc(C(C)(C)C)c(O)c(C(C)(C)C)c3)cc2)cc(C(C)(C)C)c1O	> 100 µM		> 100 µM	> 100 µM	> 100 µM	> 100 µM	> 100 µM	> 100 µM	> 100 µM	> 100 µM
O=[N+]([O-])CC(SCc1ccccc1)c1ccc2c(c1)OCO2 (stereo not given)	28.3 µM	10.5 µM	15.9 µM	21 µM	3.63 µM	> 61.2 µM	18.7 µM	22.2 µM		27.1 µM
NC1CC2C3CCC2C1C3=O (stereo not given)	> 100 µM	> 100 µM	> 100 µM	> 100 µM	> 100 µM	> 100 µM	> 100 µM	> 100 µM		> 100 µM
Cc1ccc(C(=O)CC(Cl)=C(Cl)Cl)cc1	> 100 µM		> 100 µM	> 100 µM	> 100 µM	> 100 µM	> 100 µM	> 100 µM	> 100 µM	> 100 µM
COc1ccc(CNc2nc(NCc3ccc(OC)cc3)nc(Nc3ccccc3)n2)cc1	> 100 µM		13.5 µM	> 100 µM	> 100 µM	> 100 µM	> 100 µM	> 100 µM	> 100 µM	> 100 µM
C/C(Cl)=N\OC(=O)Nc1ccccc1C(F)(F)F	35.2 µM	> 100 µM	> 100 µM	19 µM		> 100 µM	> 100 µM	> 100 µM		26.9 µM
Cc1cc(C)c2c(n1)S(=O)(=O)N(CCCN1CCN(c3cccc(C(F)(F)F)c3)CC1)/C(=C(\O)c1ccccc1)C2=O	> 100 µM		67 µM	36.8 µM	20.9 µM	> 100 µM	> 100 µM	52.7 µM	57.3 µM	63.9 µM
